Experimental data as given in US20260152799A1, “TUMOUR STRATIFICATION FOR RESPONSIVENESS TO AN IMMUNE CHECKPOINT INHIBITOR” (MEMORIAL SLOAN-KETTERING CANCER CENTER, priority 2022, published 2026).

How the values were obtained:
metastatic melanoma [1] = assay: Riaz et al clinical cohort: response to nivolumab by tumour mtDNA mutation status; format: in vivo, humans
Description: A—Stratification of a metastatic melanoma patient cohort by mtDNA status. […] P-values were determined using one-way ANOVA test with Sidak multiple comparisons test (C,F), one-tailed student's t-test (I) or chi-squared test (H) were applied. Error bars indicate SD. Measure of centrality is mean.
The inventors then assessed whether this would be associated with clinical outcome.
Aligned reads for ChrM for patients' tumour and normal samples were acquired and processed according to previously described pipelines which are now publicly available (see e.g. Gorelick et al., Nature Metabolism 2021). Mutation calls and calculated heteroplasmy were used to assign patients to mtDNA wildtype, <50% VAF or >50% VAF groups.

metastatic melanoma [2] = conditions: of the 15 responders; cited from earlier work
PD-L1 [3] = molecular target: T1, PD-L1 (Homo sapiens, UniProt Q9NZQ7); conditions: in vitro; cited from earlier work
PD-L1 [4] = molecular target: T1, PD-L1; conditions: xenograft model, T-cell dependent mechanism; cited from earlier work

T1 sequence (Q9NZQ7 19-290): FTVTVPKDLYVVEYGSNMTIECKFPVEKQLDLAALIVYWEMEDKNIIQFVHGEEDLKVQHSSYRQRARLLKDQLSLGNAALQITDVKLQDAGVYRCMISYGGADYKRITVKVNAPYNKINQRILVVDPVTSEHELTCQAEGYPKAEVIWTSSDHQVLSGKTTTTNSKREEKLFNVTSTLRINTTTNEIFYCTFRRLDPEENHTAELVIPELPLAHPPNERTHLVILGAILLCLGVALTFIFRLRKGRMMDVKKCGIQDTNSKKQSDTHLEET

Row | Substance | Tumours responding to nivolumab (metastatic melanoma [1]; <50% VAF tumours) | Tumours responding to nivolumab (metastatic melanoma [1]; >50% VAF tumours) | Complete responders categorised as >50% VAF (metastatic melanoma [1]; out of the 3 complete responders) | Complete responses (metastatic melanoma [2]) | Partial responses (metastatic melanoma [2]) | Effect on PD-L1-mediated suppression of human T-cell activation (PD-L1 [3]) | Effect on tumour growth (PD-L1 [4])
1 | nivolumab | 17% | 40% | 2 | 3 | 12 | – | –
2 | MEDI4736: anti-PD-L1 antibody selective for PD-L1 that blocks binding of PD-L1 to PD-1 and CD80 | – | – | – | – | – | relieve PD-L1-mediated suppression of human T-cell activation | inhibit tumour growth
